Data reported in patent EP4768499A1, “MACROCYCLIC PEPTIDE COMPOUND HAVING CELL MEMBRANE PERMEABILITY AND METABOLIC STABILITY, AND LIBRARY CONTAINING SAME” (Chugai Seiyaku Kabushiki Kaisha, priority 2023, dated 2025).
Starred links: 1 amine or outer side, 2 acyl side, 3 side chain; linkers in the order of their positions; H or OH if unused. Positions of bridges follow the written chain, without caps; N, C: chain ends. Non-standard residues stand in square brackets, D forms with d. Residues, ends and D or L forms follow the SMILES beside them. *: point of attachment. NMeF = CN[C@@H](Cc1ccccc1)C(=O)O; NMeGABA = CN(CCCC(=O)[*:2])[*:1]; NMeI = CC[C@H](C)[C@H](NC)C(=O)O; NMeT = CN[C@H](C(=O)O)[C@@H](C)O; hPhe = N[C@@H](CCc1ccccc1)C(=O)O; NMeβAla = CN(CCC(=O)[*:2])[*:1]; NMeL = CN[C@@H](CC(C)C)C(=O)O; dNMeV = CN[C@@H](C(=O)O)C(C)C; NMeV = CN[C@H](C(=O)O)C(C)C; NMeAbu = CC[C@H](NC)C(=O)O; NMeA = CN[C@@H](C)C(=O)O; Piperidide = C1CCN(*)CC1; Abu = CC[C@H](N)C(=O)O; NBuGly = CCCCNCC(=O)O; βAla = NCCC(=O)O; Sar = CNCC(=O)O; tBu = CC(C)(C)*

Legend:
[1] = Metabolic stability test: liver microsomal stability assay; type: in vitro ADME, mouse; details: mouse liver microsomes 0.5 mg protein/mL, compound 1 µM; for microsomal CLint at 1 µM: male, pH 7.4, presence of NADPH, read-out: Mouse Hepatic Microsome CLh,int NADPH(+); for Mouse Hepatic Microsome CLh,int NADPH(-): absence of NADPH
[2] = Membrane permeability test using Caco-2 cells with preincubation; type: in vitro ADME; details: Caco-2; preincubation 20 to 24 hours; Apical FaSSIF/HBSS pH 6.0, Basal HBSS 4% BSA pH 7.4; 180 minutes; read-out: Caco2 Papp
Caco-2 cells = assay: as above; type: in vitro ADME; details: Caco-2 cells, preincubation 20 to 24 hours; apical FaSSIF/HBSS 1% DMSO pH 6.0, basal HBSS 4% BSA pH 7.4; basal sample at 180 minutes

SMILES	microsomal CLint at 1 µM [1]	Mouse Hepatic Microsome CLh,int NADPH(-) [1]	Papp A→B [2]	Caco2 Papp (10^-6 cm/sec) (Caco-2 cells)
CC(C)C[C@@H]1NC(=O)[C@H](C(C)C)N(C)C(=O)[C@H](Cc2ccccc2)N(C)C(=O)[C@H](CC(C)C)NC(=O)[C@H](CC(C)C)N(C)C(=O)[C@H](C)N(C)C(=O)[C@H]([C@@H](C)O)NC(=O)[C@H](CC(C)C)N(C)C(=O)[C@H](C(C)C)N(C)C(=O)[C@H](CC(C)C)NC(=O)[C@H](Cc2ccccc2)N(C)C(=O)[C@@H](C(C)C)N(C)C(=O)C[C@@H](C(=O)N2CCCCC2)NC1=O [pd108] ([dNMeV][NMeF]L[NMeV][NMeL]T[NMeA][NMeL]L[NMeF][NMeV]LD-Piperidide; lactam N-13)	39.9 µL/min/mg	35.5 µL/min/mg Protein	0.03 ×10⁻⁶ cm/s	0.03 10^-6 cm/sec
CC[C@@H]1NC(=O)[C@H](Cc2ccccc2)N(C)C(=O)[C@H](C)N(C)C(=O)[C@H](CC(C)C)N(C)C(=O)[C@H](CC(C)C)NC(=O)CCCN(C)C(=O)C[C@@H](C(=O)N2CCCCC2)NC(=O)[C@H](CC(C)C)N(C)C(=O)[C@H](C)N(C)C(=O)[C@H]([C@@H](C)O)NC(=O)[C@H](CC(C)C)N(C)C(=O)[C@H](COC(C)(C)C)NC(=O)[C@H](Cc2ccccc2)N(C)C1=O [pd109] ([NMeGABA]L[NMeL][NMeA][NMeF][Abu][NMeF]S(tBu)[NMeL]T[NMeA][NMeL]D-Piperidide; lactam N-13)	40.6 µL/min/mg	30.3 µL/min/mg Protein	0.83 ×10⁻⁶ cm/s	0.83 10^-6 cm/sec
CC[C@H](C)[C@@H]1NC(=O)[C@H](C)N(C)C(=O)[C@H]([C@@H](C)O)NC(=O)[C@H](Cc2ccccc2)N(C)C(=O)[C@H](COC(C)(C)C)NC(=O)[C@H](CC(C)C)N(C)C(=O)CN(C)C(=O)[C@H](Cc2ccccc2)N(C)C(=O)[C@H]([C@@H](C)CC)NC(=O)[C@H](CC(C)C)N(C)C(=O)CCN(C)C(=O)C[C@@H](C(=O)N2CCCCC2)NC(=O)[C@H](CC(C)C)N(C)C1=O [pd110] ([NMeβAla][NMeL]I[NMeF][Sar][NMeL]S(tBu)[NMeF]T[NMeA]I[NMeL]D-Piperidide; lactam N-13)	38.5 µL/min/mg	30.5 µL/min/mg Protein	0.43 ×10⁻⁶ cm/s	0.43 10^-6 cm/sec
CCCCN1CC(=O)N[C@@H](CC(C)C)C(=O)N(C)[C@@H]([C@@H](C)CC)C(=O)N(C)[C@@H]([C@@H](C)O)C(=O)N(C)[C@@H](Cc2ccccc2)C(=O)N[C@@H]([C@@H](C)CC)C(=O)N(C)[C@@H](CC(C)C)C(=O)N[C@H](C(=O)N2CCCCC2)CC(=O)N(C)[C@@H](C)C(=O)N[C@@H](CC(C)C)C(=O)N(C)[C@@H](CC(C)C)C(=O)N(C)[C@@H](Cc2ccccc2)C(=O)N[C@@H](CC)C1=O [pd111] ([NMeA]L[NMeL][NMeF][Abu][NBuGly]L[NMeI][NMeT][NMeF]I[NMeL]D-Piperidide; lactam N-13)	18.7 µL/min/mg	28.4 µL/min/mg Protein	0.04 ×10⁻⁶ cm/s	0.04 10^-6 cm/sec
CC[C@@H]1NC(=O)[C@H](CC(C)C)N(C)C(=O)[C@H](Cc2ccccc2)N(C)C(=O)[C@H](CC(C)C)N(C)C(=O)[C@H](C)NC(=O)C[C@@H](C(=O)N2CCCCC2)NC(=O)[C@H](C(C)C)N(C)C(=O)[C@@H]2CCCN2C(=O)CCN(C)C(=O)[C@H](CC(C)C)NC(=O)[C@H]([C@@H](C)CC)N(C)C(=O)[C@H]([C@@H](C)O)NC(=O)[C@H](Cc2ccccc2)N(C)C1=O [pd112] (A[NMeL][NMeF][NMeL][Abu][NMeF]T[NMeI]L[NMeβAla]P[NMeV]D-Piperidide; lactam N-13)	30.5 µL/min/mg	21.2 µL/min/mg Protein	0.35 ×10⁻⁶ cm/s	0.35 10^-6 cm/sec
CC[C@H](C)[C@H]1C(=O)N[C@@H]([C@@H](C)O)C(=O)N(C)CC(=O)N(C)[C@@H](CC(C)C)C(=O)N[C@@H](CC(C)C)C(=O)N[C@H](C(=O)N2CCCCC2)CC(=O)N(C)[C@@H](C)C(=O)N[C@@H](CC(C)C)C(=O)N(C)[C@@H](CC(C)C)C(=O)N(C)CCC(=O)N(C)[C@@H](Cc2ccccc2)C(=O)NCCC(=O)N(C)[C@@H](Cc2ccccc2)C(=O)N1C [pd113] ([NMeA]L[NMeL][NMeβAla][NMeF][βAla][NMeF][NMeI]T[Sar][NMeL]LD-Piperidide; lactam N-13)	24.4 µL/min/mg	16.4 µL/min/mg Protein	0.2 ×10⁻⁶ cm/s	0.20 10^-6 cm/sec
CC[C@H](C)[C@@H]1NC(=O)[C@H](Cc2ccccc2)N(C)C(=O)CN(C)C(=O)C[C@@H](C(=O)N2CCCCC2)NC(=O)[C@H]([C@@H](C)CC)N(C)C(=O)[C@H](COC(C)(C)C)NC(=O)[C@@H]2CCCN2C(=O)[C@H](CCc2ccccc2)NC(=O)[C@H](CC)N(C)C(=O)[C@H](CC(C)C)NC(=O)[C@H](CC(C)C)N(C)C(=O)[C@H]([C@@H](C)O)N(C)C(=O)[C@H](CC(C)C)N(C)C1=O [pd114] ([Sar][NMeF]I[NMeL][NMeT][NMeL]L[NMeAbu][hPhe]PS(tBu)[NMeI]D-Piperidide; lactam N-13)	35.6 µL/min/mg	29.2 µL/min/mg Protein	0.16 ×10⁻⁶ cm/s	0.16 10^-6 cm/sec
CC[C@H](C)[C@@H]1NC(=O)[C@H](CC(C)C)N(C)C(=O)CN(C)C(=O)C[C@@H](C(=O)N2CCCCC2)NC(=O)[C@H](C)N(C)C(=O)CNC(=O)[C@H](C(C)C)N(C)C(=O)[C@H](C)N(C)C(=O)[C@H](Cc2ccccc2)N(C)C(=O)[C@H](CC(C)C)NC(=O)[C@H](Cc2ccccc2)N(C)C(=O)[C@H]([C@@H](C)O)NC(=O)[C@H](CC(C)C)N(C)C1=O [pd115] ([Sar][NMeL]I[NMeL]T[NMeF]L[NMeF][NMeA][NMeV]G[NMeA]D-Piperidide; lactam N-13)	24.9 µL/min/mg	12.3 µL/min/mg Protein	0.09 ×10⁻⁶ cm/s	0.09 10^-6 cm/sec
CC(C)C[C@@H]1NC(=O)[C@H]([C@@H](C)O)N(C)C(=O)[C@@H](C(C)C)NC(=O)C[C@@H](C(=O)N2CCCCC2)NC(=O)[C@H](C(C)C)N(C)C(=O)[C@H](C)N(C)C(=O)[C@H](Cc2ccccc2)N(C)C(=O)[C@@H]2CCCN2C(=O)[C@H](CC(C)C)N(C)C(=O)CN(C)C(=O)[C@H](CCc2ccccc2)NC(=O)[C@H](CC(C)C)N(C)C(=O)[C@H](C(C)C)N(C)C1=O [pd116] ([dV][NMeT]L[NMeV][NMeL][hPhe][Sar][NMeL]P[NMeF][NMeA][NMeV]D-Piperidide; lactam N-13)	19.2 µL/min/mg	14.9 µL/min/mg Protein	0.19 ×10⁻⁶ cm/s	0.19 10^-6 cm/sec
CC[C@H]1C(=O)N(C)[C@@H](CC(C)C)C(=O)N[C@@H]([C@@H](C)O)C(=O)N(C)[C@@H](C)C(=O)N(C)[C@@H](CC(C)C)C(=O)N[C@H](C(=O)N2CCCCC2)CC(=O)N(C)CCCC(=O)N[C@@H](CC(C)C)C(=O)N(C)[C@@H](CC(C)C)C(=O)N(C)[C@@H](C)C(=O)N(C)[C@@H](Cc2ccccc2)C(=O)N[C@@H](C)C(=O)N(C)[C@@H](Cc2ccccc2)C(=O)N1C [pd117] ([NMeGABA]L[NMeL][NMeA][NMeF]A[NMeF][NMeAbu][NMeL]T[NMeA][NMeL]D-Piperidide; lactam N-13)	25.9 µL/min/mg	14.4 µL/min/mg Protein	0.17 ×10⁻⁶ cm/s	0.17 10^-6 cm/sec
CC[C@H](C)[C@H]1C(=O)N[C@@H](Cc2ccccc2)C(=O)N2CCC[C@H]2C(=O)N(C)[C@@H](CC(C)C)C(=O)N[C@@H](COC(C)(C)C)C(=O)N(C)[C@@H](Cc2ccccc2)C(=O)N[C@@H]([C@@H](C)O)C(=O)N(C)[C@@H](CC)C(=O)N2CCC[C@H]2C(=O)N(C)[C@@H](CC(C)C)C(=O)N[C@H](C(=O)N2CCCCC2)CC(=O)N(C)CCCC(=O)N(C)[C@@H](CC(C)C)C(=O)N1C [pd118] ([NMeGABA][NMeL][NMeI]FP[NMeL]S(tBu)[NMeF]T[NMeAbu]P[NMeL]D-Piperidide; lactam N-13)	31.2 µL/min/mg	19.8 µL/min/mg Protein	0.46 ×10⁻⁶ cm/s	0.46 10^-6 cm/sec
CC[C@H](C)[C@H]1C(=O)N[C@@H](CC(C)C)C(=O)N(C)[C@@H](CC(C)C)C(=O)N2CCC[C@H]2C(=O)N(C)[C@@H](C(C)C)C(=O)N[C@H](C(=O)N2CCCCC2)CC(=O)N(C)[C@@H](C)C(=O)N(C)[C@@H](CC(C)C)C(=O)N[C@@H](COC(C)(C)C)C(=O)N(C)[C@@H](Cc2ccccc2)C(=O)N(C)[C@@H](CC)C(=O)N(C)[C@@H](Cc2ccccc2)C(=O)N[C@@H]([C@@H](C)O)C(=O)N1C [pd119] ([NMeA][NMeL]S(tBu)[NMeF][NMeAbu][NMeF]T[NMeI]L[NMeL]P[NMeV]D-Piperidide; lactam N-13)	41.2 µL/min/mg	34.2 µL/min/mg Protein	0.5 ×10⁻⁶ cm/s	0.50 10^-6 cm/sec
CC[C@H](C)[C@H]1C(=O)N[C@@H]([C@@H](C)O)C(=O)N(C)CC(=O)N(C)[C@@H](CC(C)C)C(=O)N(C)[C@@H](Cc2ccccc2)C(=O)N[C@H](C(=O)N2CCCCC2)CC(=O)N(C)[C@@H](C)C(=O)N[C@@H](CC(C)C)C(=O)N(C)[C@@H](Cc2ccccc2)C(=O)N(C)CCC(=O)N(C)[C@@H](CC(C)C)C(=O)N(C)CCC(=O)N[C@@H](CC(C)C)C(=O)N1C [pd120] ([NMeA]L[NMeF][NMeβAla][NMeL][NMeβAla]L[NMeI]T[Sar][NMeL][NMeF]D-Piperidide; lactam N-13)	25.8 µL/min/mg	18.4 µL/min/mg Protein	0.69 ×10⁻⁶ cm/s	0.69 10^-6 cm/sec
